From BigSolDB 2.1

Cl.NCCCC[C@H](N)C(=O)O
Details | solubility (mole fraction)
in DMSO, 282.8 K | 0.0179
in DMSO, 288.2 K | 0.0243
in DMSO, 293 K | 0.0301
in DMSO, 298.1 K | 0.0357
in DMSO, 303.3 K | 0.0391
in DMSO, 308.4 K | 0.0432
in DMSO, 312.8 K | 0.0469
in DMSO, 318.1 K | 0.0516
in DMSO, 323.2 K | 0.0529
in DMSO, 328.3 K | 0.0561
in ethanol, 288.1 K | 6.71e-06
in ethanol, 292.8 K | 8.31e-06
in ethanol, 298.1 K | 9.91e-06
in ethanol, 303 K | 1.09e-05
in ethanol, 308.1 K | 1.22e-05
in ethanol, 312.7 K | 1.41e-05
in ethanol, 318.2 K | 1.63e-05
in ethanol, 322.9 K | 1.76e-05
in ethanol, 328.3 K | 1.92e-05
in ethylene glycol, 282.9 K | 0.00769
in ethylene glycol, 288 K | 0.0108
in ethylene glycol, 293.1 K | 0.0146
in ethylene glycol, 298.2 K | 0.0183
in ethylene glycol, 303.2 K | 0.022
in ethylene glycol, 307.9 K | 0.0259
in ethylene glycol, 312.9 K | 0.0298
in ethylene glycol, 318 K | 0.0326
in ethylene glycol, 322.7 K | 0.0354
in ethylene glycol, 328.1 K | 0.0377
in methanol, 297.9 K | 0.000283
in methanol, 303 K | 0.000368
in methanol, 308.1 K | 0.000433
in methanol, 312.8 K | 0.000501
in methanol, 318.1 K | 0.00055
in methanol, 323 K | 0.000592
in methanol, 327.8 K | 0.000637
in water, 283 K | 0.0497
in water, 288.1 K | 0.0543
in water, 292.9 K | 0.0587
in water, 298.1 K | 0.0618
in water, 302.8 K | 0.0627
in water, 308 K | 0.0707
in water, 313.3 K | 0.0833
in water, 317.9 K | 0.0925
in water, 323 K | 0.102
in water, 328.2 K | 0.111
